This note sets out measurements from patent US8697709B2, “Fused ring heteroaryl kinase inhibitors” (The Regents of the University of California, priority 2008, dated 2014).

The test system of this test is T315I Bcr-Abl BaF3 cells. The experiment in a line: Cell proliferation (Resazurin) of T315I Bcr-Abl transduced BaF3 cells. In kind it is cell-based. The settings on record: two day treatment, without IL-3. (Resazurin is reduced to fluorescent resorufin, in cell work by metabolically active cells.)

With `CC(C)n1nc(-c2ccc(NC(=O)Nc3cccc(C(F)(F)F)c3)cc2)c2c(N)ncnc21` [AD57, 1-(4-(4-amino-1-isopropyl-1H-pyrazolo[3,4-d]pyrimidin-3-yl)phenyl)-3-(3-(trifluoromethyl)phenyl)urea], the “inhibition of growth of T315I Bcr-Abl BaF3 cells” value is on record as “equally inhibits the growth”.
